SMILES strings stand for the structures.

These results are taken from paper PMC8999917, “Structure–Activity Relationship of Synthetic Ginkgolic Acid Analogs for Treating Type 2 Diabetes by PTPN9 Inhibition” (International Journal of Molecular Sciences, 2022).

For the experiment, the target named is T1, PTPN9 (Homo sapiens, UniProt P43378).
T1 construct: made in house; host or cells: Escherichia coli Rosetta (DE3)
T1 sequence (P43378 277-581): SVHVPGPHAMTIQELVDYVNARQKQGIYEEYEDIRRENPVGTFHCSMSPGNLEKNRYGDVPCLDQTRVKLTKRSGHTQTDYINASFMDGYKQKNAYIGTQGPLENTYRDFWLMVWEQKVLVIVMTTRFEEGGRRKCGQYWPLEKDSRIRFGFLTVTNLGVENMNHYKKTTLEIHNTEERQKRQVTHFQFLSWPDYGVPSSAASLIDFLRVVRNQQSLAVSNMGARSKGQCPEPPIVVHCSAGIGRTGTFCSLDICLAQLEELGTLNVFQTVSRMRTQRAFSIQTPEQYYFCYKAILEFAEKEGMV
Put plainly: PTPN9 enzyme inhibition with DiFMUP substrate. The experiment is classed as biochemical. Particulars: DiFMUP 220 µM, PTPN9 0.15 nM; NA: no activity. As for the experimental part:
The purification and kinetic analyses of PTPN9 and DUSP9 (Ser277–581) were performed following methods described in the literature, with slight modifications. PAGE analysis data and enzyme kinetic constants are presented in Figure S1 and Table S1, respectively. Enzyme activity in the presence or absence of the compounds was measured using DiFMUP, a representative PTP fluorogenic substrate. First, the inhibitory effects of compounds 1–3 were evaluated using 50 µM PTPN9 and 20 µM DUSP9. There was an increase in the inhibitory activity of compound 1 for both enzymes as the number of CH2 units increased from 9 to 14 (Figure 2A,B).
Next, the IC50 values of the compounds, which induce a 50% inhibition of DiFMUP hydrolytic enzyme activity, were determined (Table 1). The IC50 values were determined from the dose–response enzyme inhibition curves of each compound. The dose–response curves for compounds 1e and 1f against PTPN9 and DUSP9, respectively, are presented in Figure 2C,D. Dose–response curves were also obtained for the other compounds (Figures S2 and S3).
The methods employed for PTP overexpression and purification have been described in a previous study. In brief, human PTPN9 and DUSP9 were cloned into a pET28a vector (Merk Millipore, Darmstadt, Germany) containing a hexahistidine (His6) tag or a maltose-binding protein (MBP) tag in its N-terminus (see Supplementary Materials). Recombinant genes were separately transformed into Escherichia coli Rosetta (DE3) (Merk Millipore, Darmstadt, Germany), and the overexpression of each gene was induced via the addition of 0.1 mM IPTG (Ducherfa Biochemie, Haarlem, RV, USA). After 16 h of incubation at 18 °C, cell pellets were obtained via centrifugation (3570× g at 4 °C for 15 min), resuspended in lysis buffer (50 mM Tris, pH: 7.5, 500 mM NaCl, 5% glycerol, 0.025% 2-mercaptoethanol, and 1 mM phenyl-methylsulfonyl fluoride (PMSF)), and lysed by ultrasonication. Subsequently, cell lysates were centrifuged at 29,820× g for 30 min at 4 °C; then, the supernatant was collected and incubated with a cobalt affinity resin (TALON® Metal Affinity Resin, Takara Korea, Seoul, Korea). After 1 h of incubation at 4 °C, the desired proteins were eluted by adding the lysis buffer supplemented with 100 mM imidazole. Samples were stored at –80 °C until use.
The enzymatic activities of purified PTPN9 and DUSP9 were measured using 6,8-difluoro-4-methylumbelliferyl phosphate (DiFMUP), the most widely used fluorogenic PTP substrate in the literature. To determine KM values, PTPN9 (0.15 nM) and DUSP9 (200 nM) were added to a reaction buffer (20 mM Bis-tris, pH: 7.0, 150 mM NaCl, 2.5 mM dithiothreitol (DTT), and 0.01% Triton X-100) containing DiFMUP (800, 400, 200, 100, 50, 25, 12.5, or 6.25 μM) in a 96-well black plate. The final reaction volume was 100 µL. The fluorescence intensity was continuously monitored for 10 min (Ex/Em = 355/460 nm) on a Victor™ X4 multilabel plate reader (Perkin Elmer, Norwalk, CT, USA). KM values were obtained using Lineweaver–Burk plots analysis.
To evaluate the enzyme inhibitory effects of GA and its analogs, 10 µl of the enzyme stock solution (1.5 nM PTPN9 and 2 µM DUSP9) in the reaction buffer was added into the mixture of DiFMUP (to a final concentration of 220 µM and 90 µM for PTPN9 and DUSP9, respectively) and each compound (to a final concentration of 50 µM and 20 µM for PTPN9 and DUSP9, respectively) was added to the reaction buffer. Enzyme activity was measured as described above. Half-inhibitory concentration (IC50) values were determined under similar conditions, except for the concentrations of the inhibitors (200, 100, 50, 25, 12.5, 6.25, or 3.125 µM for PTPN9 and 25, 12.5, 6.25, 3.125, 1.563, 0.782, or 0.391 µM for DUSP9). The dose-dependent curve was fitted to the four-parameter logistic regression equation, (y = a + (b – a)/(1 + (x/c)^d), to obtain IC50 values using the Kaleida Graph software Ver. 4.1.3. (Synergy Software Inc, PA, USA).

As to `CCCCCCCCCCCCCOc1cccc(O)c1C(=O)O` [Compound 1e], the IC50 turned out to be 18.31 ± 0.17 µM. Then `CCCCCCCCCCCCCCCOc1cccc(O)c1C(=O)O` [Compound 1f], with 10.2 ± 0.52 µM.

By IC50 is commonly meant the concentration that gives 50% inhibition.
